Assay results taken from the NIST ThermoML archive (doi:10.1021/je034182z).
Numbers after ± are expanded uncertainties.

What was measured:
[1] = 298.15 K; 101.33 kPa; Liquid
[2] = refractive index (Na D-line) (dimensionless); settings: 298.15 K; 101.33 kPa; Liquid; Standard Abbe refractometry

mass density [1] | refractive index [2] | SMILES
679.4 ± 0.8 kg/m3 | 1.3854 ± 0.0007 | CCCCCCC [heptane]
655.1 ± 0.7 kg/m3 | 1.3747 ± 0.0007 | CCCCCC [hexane]
698.5 ± 0.8 kg/m3 | 1.3954 ± 0.0007 | CCCCCCCC [octane]
881.9 ± 1.3 kg/m3 | 1.4047 ± 0.0007 | C1CCOC1 [tetrahydrofuran]

SMILES | mass density [1] | refractive index [2]
Cc1cccc(C)c1 [1,3-dimethylbenzene] | 860.3 ± 0.5 kg/m3 | 1.4947 ± 0.0007
